In US20090306116A1, “PYRIMIDINE DERIVATIVES FOR THE INHIBITION OF IGF-IR TYROSINE KINASE ACTIVITY” (AstraZeneca AB, priority 2005, published 2009):

System: murine fibroblasts (NIH3T3) over-expressing human IGF-1 receptor
Experiment: Inhibition of IGF-stimulated cell proliferation (BrdU incorporation), Test (c)
Type: cell-based
Conditions: inhibition of IGF-stimulated proliferation in NIH3T3 over-expressing human IGF-1 receptor
Method: The construction of murine fibroblasts (NIH3T3) over-expressing human IGF-1 receptor has been described by Lammers et al (EMBO J, 8, 1369-1375, 1989). These cells show a proliferative response to IGF-I which can be measured by BrdU incorporation into newly synthesised DNA. Compound potency was determined as causing inhibition of the IGF-stimulated proliferation in the following assay:
Cell Proliferation ELISA, BrdU (calorimetric) [Boehringer Mannheim (Diagnostics and Biochemicals) Ltd, UK. Cat no. 1 647 229].
DMEM, FCS, Glutamine, HBSS (all from Life Technologies Ltd., UK).
Human recombinant IGF-1 Animal/media grade (GroPep Limited ABN 78 008 176 298, Australia. Cat No. IU 100).
100 μg of lyophilised IGF was reconstituted in 100 ul of 10 mM HCl. Add 400 μl of 1 mg/ml BSA in PBS 25 μl aliquots @ 200 μg/ml IGF-1
10 μl of stock IGF+12.5 ml growth medium to give 8× stock of 160 ng/ml.
DMEM, 10% FCS, 2 mM glutamine.
DMEM, 1% charcoal/dextran stripped FCS, 2 mM glutamine.
Compounds are initially dissolved in DMSO to 10 mM, followed by dilutions in DMEM+1% FCS+glutamine to give a range from […] in 1-0.00045% DMSO final concentration in assay well. […]
The incorporation of BrdU in the cells (after a 4 h incorporation period) was assessed using the BrdU Cell Proliferation Elisa according to the manufacturer's protocol. […]

Compound: Cc1cc(Nc2nccs2)nc(N2CCC[C@H]2c2cc(-c3ccccn3)no2)n1 [Example 1, S-6-Methyl-4-(2-thiazolylamino)-2-{2-[3-(pyrid-2-yl)isoxazol-5-yl]pyrrolidin-1-yl}pyrimidine]
- IC50: 0.17 µM

Compound: Cc1cc(Nc2ncc[nH]2)nc(N2CCC[C@H]2c2cc(-c3ccccn3)no2)n1 [Example 23, S-6-Methyl-4-(imidazol-2-ylamino)-2-{2-[3-(pyridin-2-yl)isoxazol-5-yl]pyrrolidin-1-yl}pyrimidine]
- IC50: 0.45 µM
